Here are results for seven molecules from patent US9476050B2, “Combination therapy” (TURUN YLIOPISTO, priority 2011, dated 2016).

“Also recorded” adds a separate entry of the source. *: point of attachment. Cbz = O=C(OCc1ccccc1)*; CH2F = FC*

What all share (format): cell-based, human
The subject of experiment [1] is T98G glioblastoma cells. The experiment can be described thus: Apoptosis assay by sub-G0/G1 fraction estimation (apoptotic nuclear fragmentation, PI staining, FACS). Conditions: for Potentiation % (apoptotic nuclear fragmentation): T98G transfected with PME-1 specific dsRNA; for level of apoptosis in PME-1 depleted cells: PME-1 siRNA 48 hrs, then drug 24 hrs; for sensitization to STS mediated apoptosis: siRNA or chemical PP2A activator followed by STS 24 hrs. As to the method:
The percentage of the sub-G0/G1 fraction containing fragmented nuclei stained with Propidium iodide (P1) was taken as a measure of apoptotic cells. 3.5-4×10^4 cells were plated in 24-well plates, transfected with siRNA for 48 hrs, and then treated with indicated concentration of test compounds in fresh media. After 24 hrs of treatment, both floating and adherent cells were harvested by centrifugation. Cell pellets were resuspended in 400 μl of hypotonic PI buffer, containing 40 mM Tri-sodium citrate (Merck), 0.3% Triton X-100 (Sigma-Aldrich) and 50 μg/ml Propidium iodide (Sigma-Aldrich) in PBS, and incubated at room temperature for 10 minutes in dark. The flow cytometric analysis of PI stained nuclei was performed and the recorded data was analyzed using a FACScan flow cytometer and software (Becton Dickinson) respectively.
In experiments using pan-caspase inhibitor, cells were kept in growth media containing 30 μM Z-VAD-FMK starting from 18 hrs after transfection till the PI staining. For treatment with PP2A activators FTY720, Sodium Selenate and Xylulose-5-phosphate, cells were kept in respective drugs throughout the experiment starting from 24 hrs after transfection. PP2A inhibitor, Okadaic acid, treatment was given for 24 hrs after 24 hrs of transfection.
The T98G cells transfected with siRNA for 48 hrs were given drug treatments for 24 hrs and were subsequently lysed, and their nuclei were stained using hypotonic propidium iodide buffer. The lysates were analysed for changes in the sub-G0/G1 fraction of fragmented nuclei by flow cytometry (FACS) (FIG. 1B). Condensation and fragmentation of nucleus is a key biochemical feature of apoptosis and sub-G0/G1 analysis has been widely used for detection of apoptosis (FEBS Lett., 1986, 194(2):347-50; Cytometry, 1991, 12(4):323-329; Nature Protocols, 2006, 1:1458-1461).

Another experiment concerns U87MG glioblastoma cells. Nature of the experiment: Colony formation assay, U87MG. Conditions: scrambled or PME-1 siRNA, then drug 2 days; FIG. 5D. The text has this: (§1) Cells plated in very low density (4-6×10^3) in 6-well plates were allowed to grow for about 7 days until they form small colonies. These cells were then transfected with Scrambled or PME-1 siRNA using Lipofectamine RNAiMAX reagent (Invitrogen) according to the manufacturer's instructions. After 48 hrs, treatments were given with indicated concentration of chemical drugs for another 48 hrs. Cell colonies were washed with PBS, fixed with 3.7% formaldehyde and stained with 0.2% crystal violet solution (made in 10% ethanol) for 15 minutes at room temperature each. Excess stain was removed by repeated washings with PBS. Plates were dried and pictures were taken with Olympus SP-600UZ camera or Epson perfection V700 scanner and analysed with ImageJ.

Experiment [2] deals with U251MG glioblastoma cells. Nature of the experiment: Colony formation assay, U251MG. Conditions: scrambled or PME-1 siRNA, then drug 2 days; FIG. 5C.
Description: as §1

The test system of experiment [3] is T98G glioblastoma cells. The experiment can be described thus: Colony formation assay, T98G.
Description: as §1
(§2) The efficacy of this treatment combination was then tested by colony formation assay in T98G glioblastoma cells and another glioblastoma cell line U118MG. For this experiment, these cells were grown in 6-well plates until the formation of small colonies which were then transfected with Scrambled or PME-1 siRNA for 48 hrs followed by treatment with STS at the indicated concentrations for another 48 hrs.

Experiment [4] deals with T98G glioblastoma cells. The experiment can be described thus: Cell viability assay, CellTiter-glo (CTG). Particulars: PME-1 siRNA plus STS treatment. As to the method: Cell viability was determined by CellTiter-glo (CTG) assay which measures the cellular ATP levels as an indicator of metabolically active and viable cells. CTG reagent kit was purchased from Promega Corp. and assays were performed according to their recommendations. Assays were performed in white polystyrene 96-well plates (Nunc, Thermo Fisher Scientific Inc.) and luminescence was measured with Perkin Elmer Victor2 Plate Reader.

Experiment [5] deals with U118MG glioblastoma cells. The experiment can be described thus: Colony formation assay, U118MG.
Description: as §1, §2

For experiment [6], the system named is Caspase-3 and -7 activity. Nature of the experiment: Caspase-Glo 3/7 assay in T98G cells. Conditions: PME-1 depletion in combination with STS treatment. The method, then:
Caspase-3 and -7 activity was measured by luminescence based method, which utilize a substrate containing Caspase-3 and -7 target peptide DEVD, named Caspase-Glo 3/7 Assay (Promega Corp.). Assays were performed in white polystyrene 96-well plates (Nunc, Thermo Fisher Scientific Inc.) according to manufacturer's instructions and luminescence was measured with Perkin Elmer Victor2 Plate Reader.

Where [7] appears, read: PME-1 depletion or STS treatment alone.
Where [8] appears, read: combination of PME-1 siRNA 48 hrs and STS 48 hrs.

Turning to `COC(=O)[C@@]1(O)C[C@H]2O[C@]1(C)n1c3ccccc3c3c4c(c5c6ccccc6n2c5c31)C(=O)NC4` [K252a, (9S,10R,12R)-2,3,9,10,11,12-Hexahydro-10-hydroxy-9-methyl-1-oxo-9,12-epoxy-1H-diindolo[1,2,3-fg:3′,2′,1′kl] pyrrolo[3,4-i][1,6] benzodiazocine-10-carboxylic acid methyl ester], the “Potentiation % (apoptotic nuclear fragmentation)” value (“Potentiation %” below) with T98G glioblastoma cells [1] (500 nM drug) was 10-15%; in the experiment with T98G glioblastoma cells [1] (5 μM drug), 80-90%. For the same molecule, in the experiment with T98G glioblastoma cells [1] (T98G), the “level of apoptosis in PME-1 depleted cells” value (from here on “level of apoptosis”) is “levels even higher than STS itself”. Also, the “cell killing activity with PME-1 depletion (colony formation)” value (shortened to “cell killing activity”) (with U87MG glioblastoma cells; in experiment [2]) was “enhanced the cell killing activity” each time.

As to `CO[C@@H]1[C@H](N(C)C(=O)c2ccccc2)C[C@H]2O[C@]1(C)n1c3ccccc3c3c4c(c5c6ccccc6n2c5c31)C(=O)NC4` [PKC412, [9S-(9α,10β,11β, 13α)]-N-(2,3,10, 11,12,13-Hexahydro-10-methoxy-9-methyl-1-oxo-9,13-epoxy-1 H,9H-diindolo [1,2,3-gh:3′,2′,1′-lm]pyrrolo[3,4-j][1,7]benzodiazonin-11-yl)-N-methyl benzamide], the “Potentiation %” value in the experiment on T98G glioblastoma cells [1] (500 nM drug) is 5-10%; with T98G glioblastoma cells [1] (5 μM drug) it was 75-80%. Further, the “level of apoptosis” value with T98G glioblastoma cells [1] (T98G) was “levels even higher than STS itself”. For the same molecule, the “cell killing activity” value (in the experiment on U87MG glioblastoma cells; in experiment [2]) was “enhanced the cell killing activity” throughout.

As for `CN[C@@H]1C[C@H]2O[C@@](C)([C@@H]1OC)n1c3ccccc3c3c4c(c5c6ccccc6n2c5c31)C(=O)NC4` [Staurosporine, [9S-(9α,10β,11β, 13α)]-2,3,10,11, 12,13-Hexahydro-10-methoxy-9-methyl-11-(methylamino)-9,13-epoxy-1H,9H-diindolo[1,2,3-gh:3′,2′,1′-lm] pyrrolo[3,4-j][1,7] benzodiazonin-1-one], the “Potentiation %” value with T98G glioblastoma cells [1] (50 nM drug) is 50-60%. For the same molecule, the “level of apoptosis” value in the experiment with T98G glioblastoma cells [1] (T98G) was “very high level of apoptosis”; in the experiment on T98G glioblastoma cells [1] (T98G, listed as STS) it was “dose dependent manner; also recorded: highly sensitive”. Also, the “concentration above which STS alone induces cell death” value in the experiment with T98G glioblastoma cells [1] (control (Scrambled siRNA transfected) T98G cells) is reported as “higher than 50 nM”. The “concentration above which STS alone gives limited amount of cell death” value with T98G glioblastoma cells [1] (untransfected T98G cells) is “higher than 30 nM”. For the same molecule, the colony formation ability result in the experiment on T98G glioblastoma cells [3] (setting [7]) was “moderately reduced”; with T98G glioblastoma cells [3] (setting [8]) it was “almost complete loss of colonies”; in experiment [5] (setting [7]), “moderately reduced”; in experiment [5] (setting [8]), “almost complete loss of colonies”. Besides, the cell viability entry in the experiment on T98G glioblastoma cells [4] is recorded as “drastic decrease”. Further, the “cell killing activity” value (in the experiment on U87MG glioblastoma cells; in experiment [2]) was “enhanced the cell killing activity” in each case. In experiment [6], the “increase of the activity of Caspase-3/7” value is on record as “above 6 fold”.

Take `O=C(CO)[C@@H](O)[C@H](O)COP(=O)(O)O` [Xylulose-5-phosphate]: the “sensitization to STS mediated apoptosis” value with T98G glioblastoma cells [1] (T98G) was “None of these chemical PP2A activators were able to sensitize”.

As for Cbz-Val-Ala-Asp-CH2F, in the experiment with T98G glioblastoma cells [1] (agent added to, or siRNA co-transfected with, PME-1 siRNA plus STS, T98G), the “reversal of PME-1 siRNA and STS mediated apoptosis” value is on record as “complete reversal”.

Consider Sodium selenate, for which the “sensitization to STS mediated apoptosis” value in the experiment on T98G glioblastoma cells [1] (T98G) is “None of these chemical PP2A activators were able to sensitize”.

As to TRAIL, in the experiment with T98G glioblastoma cells [1] (PME-1 siRNA versus scrambled siRNA, T98G), the “synergistic effect of PME-1 depletion / benefit of combination with PME-1 siRNA” value is reported as “did not show the same trend”.
